In assay [1] the test system is Jurkat (clone E6-1) cells, NFAT luciferase reporter. Kind of assay: Jurkat Reporter Assay (NFAT Luciferase). As to conditions: Homo sapiens, anti-CD3 stimulation, 6 hr, read-out: Jurkat NFAT EC50. It counts as cell-based. For orientation: A reporter such as luciferase makes a cellular process visible.
Assay [2] concerns Phospho-Zap70 (Y-319) in Jurkat wild-type (clone E6-1) cells. The assay is described as follows: Jurkat pZAP70 HTRF Assay. It counts as cell-based. The following applies: Homo sapiens, anti-CD3 5 μg/ml, 3 hr, read-out: ZAP70 Jurkat EC50. (Time-resolved FRET reads energy transfer from a long-lived donor to a nearby acceptor.)
The target of assay [3] is Recombinant human Cbl-b (aa 36-427) (Homo sapiens (Human), UniProt Q13191). The assay is described as follows: Cbl-b Biochemical Assay (TR-FRET). As to conditions: read-out: TR-FRET hCbl-b IC50. The method, boiled down: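 IC50 from 4-parameter fit of % inhibition (DMSO max, reference-inhibitor min), duplicate ten-point series. Compound preincubated with 6 nM Cbl-b, then Src-Zap70 (1-2.5 nM)/0.5 mM ATP reaction 60 min RT; EDTA quench with labelled UBE2D2-Ub and streptavidin-terbium, 60 min, HTRF at 520 nm.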
Recombinant human Cbl-b (aa 36-427), sequence (Q13191 36-427): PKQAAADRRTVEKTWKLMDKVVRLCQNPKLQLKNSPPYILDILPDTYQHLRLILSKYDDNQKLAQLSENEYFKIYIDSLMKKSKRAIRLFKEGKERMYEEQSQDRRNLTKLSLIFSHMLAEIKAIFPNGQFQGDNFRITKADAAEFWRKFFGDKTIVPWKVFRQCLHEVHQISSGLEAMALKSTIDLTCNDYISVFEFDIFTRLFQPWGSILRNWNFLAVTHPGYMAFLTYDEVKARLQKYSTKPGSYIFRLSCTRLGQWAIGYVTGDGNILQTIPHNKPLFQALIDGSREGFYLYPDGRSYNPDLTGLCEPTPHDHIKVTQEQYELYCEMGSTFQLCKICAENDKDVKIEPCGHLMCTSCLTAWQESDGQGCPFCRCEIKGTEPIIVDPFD

The structures appear in SMILES notation.

`Cn1cnnc1-c1ccccc1-c1cc(C2CC2)nc(N2Cc3ccc(CNCC4(O)CCC4)cc3C2=O)c1` [AEH-1, 2-{6-Cyclopropyl-4-[2-(4-methyl-1,2,4-triazol-3-yl)phenyl]pyridin-2-yl}-6-({[(1-hydroxycyclobutyl)methyl]amino}methyl)-3H-isoindol-1-one]: the EC50 in assay [1] and in assay [2] was less than 200 nM each time. In addition, the IC50 (commonly the concentration at which inhibition is half-maximal) in assay [3] was not above 200 nM.
With `Cn1cnnc1-c1ccccc1-c1cc(C2CC2)nc(N2Cc3cc(F)c(CNCC4(O)CCC4)cc3C2=O)c1` [AEI-5, 2-{6-Cyclopropyl-4-[2-(4-methyl-1,2,4-triazol-3-yl)phenyl]pyridin-2-yl}-5-fluoro-6-({[(1-hydroxycyclobutyl)methyl]amino}methyl)-3H-isoindol-1-one], the EC50 in assay [1] and in assay [2] was less than 200 nM in each case. In addition, in assay [3], the IC50 was not above 200 nM.
For `CCNc1cc(-c2c(-c3nncn3C)cnn2C)cc(N2Cc3c(cc(CN(C)CC4(O)CCC4)cc3C(F)(F)F)C2=O)n1` [AEJ-3, 2-(6-(Ethylamino)-4-(1-methyl-4-(4-methyl-4H-1,2,4-triazol-3-yl)-1H-pyrazol-5-yl)pyridin-2-yl)-6-((((1-hydroxycyclobutyl)methyl)(methyl)amino)methyl)-4-(trifluoromethyl)isoindolin-1-one], the half-maximal effective concentration (EC50) in assay [1] and in assay [2] was less than 200 nM in each case. Moreover, the IC50 in assay [3] was not above 200 nM.
Take `CCNc1cc(-c2ccc(C#N)cc2-c2nncn2C)cc(N2Cc3c(cc(CN[C@@H]4CCC[C@@H]4O)cc3C(F)(F)F)C2=O)n1` [AEL-2, 4-[2-(Ethylamino)-6-[6-({[(1R,2S)-2-hydroxycyclopentyl]amino}methyl)-1-oxo-4-(trifluoromethyl)-3H-isoindol-2-yl]pyridin-4-yl]-3-(4-methyl-1,2,4-triazol-3-yl) benzonitrile]: the EC50 in assay [1] and in assay [2] was less than 200 nM each time. The 50% inhibitory concentration (IC50) in assay [3] was not above 200 nM.
Turning to `COc1cc2c(cc1CNCC1(O)CCC1)C(=O)N(c1cc(-c3ccccc3-c3nncn3C)cc(C3CC3)n1)C2` [AEM-9, 2-(6-Cyclopropyl-4-(2-(4-methyl-4H-1,2,4-triazol-3-yl)phenyl)pyridin-2-yl)-6-((((1-hydroxycyclobutyl)methyl)amino)methyl)-5-methoxyisoindolin-1-one], the 50% effective concentration (EC50) in assay [1] and in assay [2] was less than 200 nM in each case. In addition, in assay [3], the 50% inhibitory concentration (IC50) is not above 200 nM.
Turning to `COCCNCc1cc2c(c(C(F)(F)F)c1)CN(c1cc(-c3ccc(C#N)cc3-c3nncn3C)cc(C3CC3)n1)C2=O` [AEN-1, 4-[2-Cyclopropyl-6-(6-{[(2-methoxyethyl)amino]methyl}-1-oxo-4-(trifluoromethyl)-3H-isoindol-2-yl)pyridin-4-yl]-3-(4-methyl-1,2,4-triazol-3-yl)benzonitrile], the EC50 in assay [1] and in assay [2] was less than 200 nM throughout. In assay [3], the IC50 was not above 200 nM.
For the compound `Cn1cnnc1-c1cc(C#N)ccc1-c1cc(C2CC2)nc(N2Cc3c(cc(CNCCO)cc3C(F)(F)F)C2=O)c1` [AEO-2, 4-[2-Cyclopropyl-6-(6-{[(2-hydroxyethyl)amino]methyl}-1-oxo-4-(trifluoromethyl)-3H-isoindol-2-yl)pyridin-4-yl]-3-(4-methyl-1,2,4-triazol-3-yl) benzonitrile], the EC50 in assay [1] and in assay [2] was less than 200 nM throughout. Moreover, the IC50 in assay [3] is not above 200 nM.
`CCNc1cc(-c2c(-c3nncn3C)cnn2C)cc(N2Cc3c(cc(CNCC4(OC)CCC4)cc3C(F)(F)F)C2=O)n1` [AEQ-3, 2-[6-(Ethylamino)-4-[2-methyl-4-(4-methyl-1,2,4-triazol-3-yl)pyrazol-3-yl]pyridin-2-yl]-6-({[(1-methoxycyclobutyl)methyl]amino}methyl)-4-(trifluoromethyl)-3H-isoindol-1-one]: the EC50 in assay [1] and in assay [2] was less than 200 nM in each case. For the same compound, the IC50 in assay [3] is not above 200 nM.
On to `Cn1cnnc1-c1cc(C#N)ccc1-c1cc(C2CC2)nc(N2Cc3c(cc(CO)cc3C(F)(F)F)C2=O)c1` [AES-1, 4-(2-Cyclopropyl-6-(6-(hydroxymethyl)-1-oxo-4-(trifluoromethyl)isoindolin-2-yl)pyridin-4-yl)-3-(4-methyl-4H-1,2,4-triazol-3-yl)benzonitrile], for which the EC50 (commonly the concentration giving half of the maximal effect) in assay [1] is less than 200 nM; in assay [2], 200 to 1000 nM. Further, in assay [3], the IC50 was not above 200 nM.
Turning to `CCNc1cc(-c2ccc(C#N)cc2-c2nncn2C)cc(N2Cc3c(cc(CN[C@@H]4CCC[C@@H]4F)cc3C(F)(F)F)C2=O)n1` [AET-6, 4-[2-(Ethylamino)-6-[6-({[(1R,2S)-2-fluorocyclopentyl]amino}methyl)-1-oxo-4-(trifluoromethyl)-3H-isoindol-2-yl]pyridin-4-yl]-3-(4-methyl-1,2,4-triazol-3-yl) benzonitrile], the EC50 in assay [1] and in assay [2] was less than 200 nM each time. For the same compound, the IC50 in assay [3] is not above 200 nM.
With `CCNc1cc(-c2ccc(C#N)cc2-c2nncn2C)cc(N2Cc3c(cc(OC)cc3C(F)(F)F)C2=O)n1` [AEU-8, 4-[2-(Ethylamino)-6-[6-methoxy-1-oxo-4-(trifluoromethyl)-3H-isoindol-2-yl]pyridin-4-yl]-3-(4-methyl-1,2,4-triazol-3-yl)benzonitrile], the concentration for a half-maximal effect (EC50) was less than 200 nM in assay [1] and 200 to 1000 nM in assay [2]. The IC50 in assay [3] is not above 200 nM.
The corresponding values for `CCNc1cc(-c2ccc(C#N)cc2-c2nncn2C)cc(N2Cc3c(cc(COC4CC4)cc3C(F)(F)F)C2=O)n1` [AEV-3, 4-{2-[6-(Cyclopropoxymethyl)-1-oxo-4-(trifluoromethyl) -3H-isoindol-2-yl]-6-(ethylamino)pyridin-4-yl}-3-(4-methyl-1,2,4-triazol-3-yl) benzonitrile] are less than 200 nM, 1000 to 10000 nM and not above 200 nM.
For `CCOc1cc(-c2ccc(C#N)cc2-c2nncn2C)cc(N2Cc3c(cc(CO)cc3C(F)(F)F)C2=O)n1` [AEW-2, 4-{2-Ethoxy-6-[6-(hydroxymethyl)-1-oxo-4-(trifluoromethyl)-3H-isoindol-2-yl]pyridin-4-yl}-3-(4-methyl-1,2,4-triazol-3-yl)benzonitrile] the same measures were less than 200 nM, 200 to 1000 nM and not above 200 nM.
For `Cn1cnnc1-c1cc(F)ccc1-c1cc(C2CC2)nc(N2Cc3c(cc(CNCC4(O)CCC4)cc3C(F)(F)F)C2=O)c1` [AEY-1, 2-{6-Cyclopropyl-4-[4-fluoro-2-(4-methyl-1,2,4-triazol-3-yl)phenyl]pyridin-2-yl}-6-({[(1-hydroxycyclobutyl)methyl]amino}methyl)-4-(trifluoromethyl)-3H-isoindol-1-one] the same measures were less than 200 nM, less than 200 nM and not above 200 nM.
For `CCNc1cc(-c2ccc(C#N)cc2-c2nncn2C)cc(N2Cc3c(cc(COCC4(O)CCC4)cc3C(F)(F)F)C2=O)n1` [AEZ-1, 4-[2-(ethylamino)-6-(6-{[(1-hydroxycyclobutyl)methoxy]methyl}-1-oxo-4-(trifluoromethyl)-3H-isoindol-2-yl)pyridin-4-yl]-3-(4-methyl-1,2,4-triazol-3-yl) benzonitrile], the EC50 in assay [1] was less than 200 nM; in assay [2], 200 to 1000 nM. In assay [3], the half-maximal inhibitory concentration (IC50) is not above 200 nM.

The values are drawn from patent US12325697B2 (Nimbus Clio, Inc., priority 2021, dated 2025).
